{"source": "patent US20100137346A1", "about": "“DESFE[…] ACTINIDE DEC[…]” (priority 2006, published 2010)", "key": {"[1]": {"experiment": "Renal uranium content in uranyl acetate-treated bile duct-cannulated rats (FIG. 3)", "type": "in vivo, rat", "procedure": "Desferrithiocin Analogue Induced Excretion of Uranium. In order to compare results with previous chelator-induced iron excretion data, the uranium clearance studies were carried out in a bile duct-cannulated rat model. The animals were given uranyl acetate dihydrate SC at a dose of 5 mg/kg (the actual dose of uranium is 2.8 mg/kg). Bile and urine samples were collected for 24 hours after dosing. Kidneys were removed from selected animals and tissue uranium concentration measured. At least three animals were utilized in each experimental group. Data from two separate control studies (uranyl acetate/ no chelator) have now been combined for a total of 14 control animals. All uranium concentrations were measured using ICPMS. The data are reported as the total quantity of uranium excreted [urine +bile]; the mode of excretion [urine/bile] is also given. In addition the percentage of the administered dose of uranium cleared and chelator-induced uranium excretion vs the controls is also given. Four positive controls were evaluated: DTPA (13, Table 1) given as its trisodium calcium salt, DFO (14), N,N′-bis(2hydroxybenzyl)ethylenediamine-N,N′-diacetic acid, monosodium salt (NaHBED, 15) and the hydroxypyridone CP94 (16) shown to bind uranium [Pashalidis, et al., Effective complex formation in the interaction of 1,2-dimethyl-3-hydroxypyrid-4-one (Deferiprone or L1) with uranium(VI), Journal of Radioanalytical and Nuclear Chemistry 1999; 242:181-184.] The total metal cleared after 24 h in control rats was 10% of the administered dose. When DTPA, 13, was given IP or PO at 300 μmol/kg immediately after uranium, the excretion was 17% and 8% of the administered dose respectively (p>0.05). However, when the drug was given IP at a dose of 600 μmol/kg immediately post-metal, the uranium excretion was significant, 20% (p<0.005). This is consistent with previously published data using a similar animal model.[Domingo, et al., Comparative effects of the chelators sodium 4,5-dihydroxybenzene-1,3-disulfonate (Tiron) and diethylenetriaminepentaacetic acid (DTPA) on acute uranium nephrotoxicity in rats, Toxicology 1997; 118:49-59] DFO (14) and CP94 (16) given IP immediately post uranyl acetate were ineffective.\nThe most promising analogue in the (S)-2-(2,4-dihydroxyphenyl)-4,5-dihydro-4-thiazolinecarboxylic series is the methoxy analogue (S)-4′-(CH3O)-DADMDFT (11). Given IP at 300 μmol/kg 0.5 h before uranyl acetate or immediately thereafter, nearly 30% of the metal was cleared (Table 1). This was also true if the drug was given IP 0.5 or 2 h post metal. The drug retains some efficacy given 4 h post uranium; 16% of the metal is excreted (p<0.006). When the chelator was given SC immediately post uranium, 40% of the administered metal was cleared. The increased excretion is probably associated with a slower absorption of the ligand. The data from rodents given the drug orally is even more encouraging (Table 1). […] The most profound data are associated with uranium decorporation from the kidneys (FIG. 3). When DTPA is given IP or PO at a dose of 300 μmol/kg immediately post metal, there is no reduction in renal uranium relative to controls. However, (S)-4′-(CH3O)-DADMDFT (11) given orally at a dose of 300 μmol/kg immediately post metal reduces renal uranium by 37% (p<0.005).\nThere is a small (16%) reduction when the drug is given PO at a dose of 300 μmol/kg 2 h post uranium. However, when 11 is given PO at a dose of 600 μmol/kg 0.5 h post metal, the renal uranium content is reduced by 76% (p<0.001). When given PO at the same dose 1 h post uranium exposure, the reduction is still significant, 42% (p<0.006). In all sets of ligands, the most lipophilic chelator is always the most toxic. […] On the basis of this finding, a less lipophilic, more water-soluble ligand than 12 was assembled, (S)-4′-(HO)-DADFT-PE (18, Table 1), a polyether analogue."}, "[2]": {"experiment": "GLP toxicity and pharmacokinetics profile (NIH Roadmap Program)", "type": "in vivo", "text": "7. This same ligand (11) has now been run through the NIH Roadmap Program and a complete GLP toxicity and pharmacokinetics profile is available."}, "[3]": {"experiment": "Chelator-induced uranium excretion (urine + bile, 24 h) in bile duct-cannulated rat model", "type": "in vivo", "summary_of_the_method": "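Bile duct-cannulated rats received uranyl acetate dihydrate subcutaneously at 5 mg/kg, equal to 2.8 mg/kg uranium, and were then given a chelator. Urine and bile were collected for 24 hours and uranium was quantified by ICPMS. Results give total uranium excreted (urine + bile), the urine/bile split, the percentage of the administered dose cleared, and excretion relative to 14 pooled uranyl acetate-only controls. Each group had at least three animals.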"}, "[4]": {"conditions": "in vivo; cited from earlier work"}}, "data": [{"compound": "COc1ccc(C2=N[C@@H](C(=O)O)CS2)c(O)c1", "note": "[Compound 11, (S)-2-(2-hydroxy-4-methoxyphenyl)-4,5dihydro-4-thiazolecarboxylic acid]", "values": [{"measurement": "reduction in renal uranium", "setting": "[1]; PO 300 μmol/kg 2 h post uranium", "result": 16, "unit": "%"}, {"measurement": "reduction in renal uranium relative to controls", "setting": "[1]; PO 300 μmol/kg immediately post metal", "result": 37, "unit": "%"}, {"measurement": "reduction in renal uranium content", "setting": "[1]; PO 600 μmol/kg 0.5 h post metal", "result": 76, "unit": "%"}, {"measurement": "reduction in renal uranium content", "setting": "[1]; PO 600 μmol/kg 1 h post uranium exposure", "result": 42, "unit": "%"}, {"measurement": "no-observed-adverse-effect-level", "setting": "[2]", "result": "well within the range of expected human dosing requirements"}, {"measurement": "% of Administered Dose Cleared", "setting": "[3]; 300 μmol/kg IP 0.5 h Post", "result": "~30", "unit": "%"}, {"measurement": "% of Administered Dose Cleared", "setting": "[3]; 300 μmol/kg IP 0.5 h Post, listed as (S)-4′-(CH3O)-DADMDFT", "result": "~30", "unit": "%"}, {"measurement": "% of Administered Dose Cleared", "setting": "[3]; 300 μmol/kg IP 0.5 h Pre", "result": "~30", "unit": "%"}, {"measurement": "% of Administered Dose Cleared", "setting": "[3]; 300 μmol/kg IP 0.5 h Pre, listed as (S)-4′-(CH3O)-DADMDFT", "result": "~30", "unit": "%"}, {"measurement": "% of Administered Dose Cleared", "setting": "[3]; 300 μmol/kg IP 2 h Post", "result": "~30", "unit": "%"}, {"measurement": "% of Administered Dose Cleared", "setting": "[3]; 300 μmol/kg IP 4 h Post", "result": 16, "unit": "%"}, {"measurement": "% of Administered Dose Cleared", "setting": "[3]; 300 μmol/kg IP Immediate", "result": "~30", "unit": "%"}, {"measurement": "% of Administered Dose Cleared", "setting": "[3]; 300 μmol/kg PO 2 h Post", "result": 18, "unit": "%"}, {"measurement": "% of Administered Dose Cleared", "setting": "[3]; 300 μmol/kg PO Immediate", "result": 23, "unit": "%"}, {"measurement": "% of Administered Dose Cleared", "setting": "[3]; 300 μmol/kg SC Immediate", "result": 40, "unit": "%"}, {"measurement": "% of Administered Dose Cleared", "setting": "[3]; 600 μmol/kg PO 0.5 h Post", "result": 25, "unit": "%"}, {"measurement": "% of Administered Dose Cleared", "setting": "[3]; 600 μmol/kg PO 1 h Post", "result": 26, "unit": "%"}, {"measurement": "metabolite formed by metabolic O-demethylation", "setting": "[4]", "result": "(S)-4′-(HO)-DADMDFT (9)"}]}]}
